The experiment deals with HIF PHD2 (Homo sapiens, UniProt Q9GZT9). Nature of the experiment: PHD2 inhibition assay (TR-FRET, VCB-Eu detection of hydroxylated P564-HIF1α peptide). The experiment is classed as biochemical. The note with it: 2 nM PHD2, 100 nM P564-HIF1α peptide, 0.25 μM 2-oxoglutarate, 100 μM FeCl2, 2 mM ascorbic acid, pH 6. As to the method: Inhibition of HIF PHD2 activity was quantified utilizing the TR-FRET technology. HIF PHD2 catalyzes a hydroxyl modification on the proline residue of the P564-HIF1α peptide substrate (Biotin-[…] (SEQ ID NO: 7)) resulting in recognition and binding of the europylated Von Hippel-Lindau protein (pVHL), elongin B and elongin C heterotrimeric (VCB-Eu) complex.
Sequence of HIF PHD2 (Q9GZT9 whole entry): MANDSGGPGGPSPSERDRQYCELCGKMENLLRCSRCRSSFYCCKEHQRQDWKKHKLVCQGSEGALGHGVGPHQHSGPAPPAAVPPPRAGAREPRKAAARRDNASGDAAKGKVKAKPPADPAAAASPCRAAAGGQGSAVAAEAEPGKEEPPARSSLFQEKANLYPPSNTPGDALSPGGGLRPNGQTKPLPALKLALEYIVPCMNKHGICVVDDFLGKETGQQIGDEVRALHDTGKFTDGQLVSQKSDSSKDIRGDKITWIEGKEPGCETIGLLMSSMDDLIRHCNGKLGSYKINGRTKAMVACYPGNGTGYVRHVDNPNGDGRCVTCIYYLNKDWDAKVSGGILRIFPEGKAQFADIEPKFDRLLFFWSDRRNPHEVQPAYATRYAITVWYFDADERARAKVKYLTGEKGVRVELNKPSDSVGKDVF
The PHD2 inhibition assay was executed by addition of freshly dissolved FeCl2 to 178.57 μM (100 μM final concentration) in PHD2 Reaction Buffer containing 30 mM MES, pH 6, 10 mM NaCl, 0.25% Brij-35, 0.01% BSA, and 1% DMSO. 28 μL of the iron solution and 2 μL of inhibitor compounds serially diluted in 100% DMSO (5% DMSO final) were added to black polypropylene 96-well microtiter plates. To that, 10 μL of 10 nM PHD2 (2 nM final) was added to all wells of the plate except for the 8 wells of column 12 (LO control), and allowed to incubate at room temperature on the shaker for one hour. Column 6 was the HI control containing PHD2 enzyme and 5% DMSO vehicle, but no inhibitor compound. To initiate the PHD2 enzymatic reaction, 10 μL of a solution containing 500 nM P564-HIF1α peptide (100 nM final), 10 mM ascorbic acid (2 mM final), and 1.25 μM 2-oxoglutarate (α-ketoglutarate; 0.25 μM final) in PHD2 Reaction Buffer was added to all wells of the plate and allowed to incubate on the shaker at room temperature for one hour.
The reaction was terminated by addition of 25 μL TR-FRET Buffer (50 mM TRIS-HCl, pH 9, 100 mM NaCl, 0.05% BSA, and 0.5% Tween-20) containing 150 mM succinate (product inhibitor; 50 mM final), 75 nM streptavidin-APC (25 nM final), and 7.5 nM VCB-Eu (2.5 nM final). The TR-FRET detection reagents were placed on a shaker for 1 hour to reach binding equilibrium before reading on the Discovery platform (PerkinElmer). Europium is excited at 315 nm and phosphoresces at 615 nm with a large Stoke's shift. APC, in turn, emits at 655 nm upon excitation at 615 nm. The TR-FRET signal is measured as the ratio of the APC 655 nm signal divided by the internal europium reference 615 nm emission signal.
The POC (percentage of control) was determined by comparing the signal from hydroxylated peptide substrate in the enzyme reaction containing inhibitor compound with that from PHD2 enzyme with DMSO vehicle alone (HI control), and no enzyme (LO control). POC was calculated using the formula: % control (POC)=(cpd−average LO)/(average HI−average LO)*100. Data (consisting of POC and inhibitor concentration in μM) was fitted to a 4-parameter equation (y=A+((B−A)/(1+((x/C)^D))), where A is the minimum y (POC) value, B is the maximum y (POC), C is the x (cpd concentration) at the point of inflection and D is the slope factor) using a Levenburg-Marquardt non-linear regression algorithm.
Background: In TR-FRET formats the signal depends on donor and acceptor labels being close together.
As to `Cn1c(=O)c(C(=O)NCC(=O)O)c(O)c2cnc(-c3ccc4sccc4c3)nc21` [Example 51, 2-(2-(benzo[b]thiophen-5-yl)-5-hydroxy-8-methyl-7-oxo-7,8-dihydropyrido[2,3-d]pyrimidine-6-carboxamido)acetic acid], the midpoint of inhibition, the IC50, lay at 9.4 nM.
For `Cn1ccc2cc(-c3ncc4c(O)c(C(=O)NCC(=O)O)c(=O)n(C)c4n3)ccc21` [Example 44, 2-(5-hydroxy-8-methyl-2-(1-methyl-1H-indol-5-yl)-7-oxo-7,8-dihydropyrido[2,3-d]pyrimidine-6-carboxamido)acetic acid] the value was 7.8 nM; for `Cn1c(=O)c(C(=O)NCC(=O)O)c(O)c2cnc(-c3csc4ccccc34)nc21` [Example 40, 2-(2-(benzo[b]thiophen-3-yl)-5-hydroxy-8-methyl-7-oxo-7,8-dihydropyrido[2,3-d]pyrimidine-6-carboxamido)acetic acid], 13 nM.
For `Cn1c(=O)c(C(=O)NCC(=O)O)c(O)c2cnc(-c3cccc4ccccc34)nc21` [Example 46, 2-(5-hydroxy-8-methyl-2-(naphthalen-1-yl)-7-oxo-7,8-dihydropyrido[2,3-d]pyrimidine-6-carboxamido)acetic acid] the value was 2.3 nM.
For `CSc1ncc2c(O)c(C(=O)NCC(=O)O)c(=O)n(C)c2n1` [Example 10, 2-(5-hydroxy-8-methyl-2-(methylthio)-7-oxo-7,8-dihydropyrido[2,3-d]pyrimidine-6-carboxamido)acetic acid], the IC50 (in general, the point on the concentration scale where inhibition reaches its midpoint) is 25 nM.
`Cn1c(=O)c(C(=O)NCC(=O)O)c(O)c2cnc(-c3ccoc3)nc21` [Example 30, 2-(2-(furan-3-yl)-5-hydroxy-8-methyl-7-oxo-7,8-dihydropyrido[2,3-d]pyrimidine-6-carboxamido)acetic acid] came in with an IC50 of 5.3 nM.
Compound `Cn1c(=O)c(C(=O)NCC(=O)O)c(O)c2cnc(-c3ccc4occc4c3)nc21` [Example 48, 2-(2-(benzofuran-5-yl)-5-hydroxy-8-methyl-7-oxo-7,8-dihydropyrido[2,3-d]pyrimidine-6-carboxamido)acetic acid] displayed an IC50 of 7.1 nM.
In the case of `Cc1ccccc1-c1ncc2c(O)c(C(=O)NCC(=O)O)c(=O)n(C)c2n1` [Example 50, 2-(5-hydroxy-8-methyl-7-oxo-2-o-tolyl-7,8-dihydropyrido[2,3-d]pyrimidine-6-carboxamido)acetic acid], half-maximal inhibition (IC50) required 3.6 nM.
Under `Cn1c(=O)c(C(=O)NCC(=O)O)c(O)c2ncc(-c3ccccc3)nc21` [Example 18, 2-(8-hydroxy-5-methyl-6-oxo-3-phenyl-5,6-dihydropyrido[3,2-b]pyrazine-7-carboxamido)acetic acid] stands 8.8 nM; under `COc1ccc(-c2ncc3c(O)c(C(=O)NCC(=O)O)c(=O)n(C)c3n2)cc1` [Example 33, 2-(5-hydroxy-2-(4-methoxyphenyl)-8-methyl-7-oxo-7,8-dihydropyrido[2,3-d]pyrimidine-6-carboxamido)acetic acid], 6.4 nM; under `Cc1cccc(-c2ncc3c(O)c(C(=O)NCC(=O)O)c(=O)n(C)c3n2)c1` [Example 37, 2-(5-hydroxy-8-methyl-7-oxo-2-m-tolyl-7,8-dihydropyrido[2,3-d]pyrimidine-6-carboxamido)acetic acid], 8.8 nM.
Under `Cn1c(=O)c(C(=O)NCC(=O)O)c(O)c2cc(C3CCCC3)nnc21` [Example 5, 2-(3-cyclopentyl-5-hydroxy-8-methyl-7-oxo-7,8-dihydropyrido[2,3-c]pyridazine-6-carboxamido)acetic acid] stands 8.8 nM; under `Cn1c(=O)c(C(=O)NCC(=O)O)c(O)c2cnc(N3CCCC3)nc21` [Example 15, 2-(5-hydroxy-8-methyl-7-oxo-2-(pyrrolidin-1-yl)-7,8-dihydropyrido[2,3-d]pyrimidine-6-carboxamido)acetic acid], 7.35 nM.
As to `Cn1c(=O)c(C(=O)NCC(=O)O)c(O)c2cnc(-c3ccccc3)nc21` [Example 25, 2-(5-hydroxy-8-methyl-7-oxo-2-phenyl-7,8-dihydropyrido[2,3-d]pyrimidine-6-carboxamido)acetic acid], it took 4.3 nM to reach half-maximal inhibition (IC50). This IC50 lies about 1.7-fold lower than the previous one.
`Cn1c(=O)c(C(=O)NCC(=O)O)c(O)c2cnc(-c3ccc(F)cc3)nc21` [Example 27, 2-(2-(4-fluorophenyl)-5-hydroxy-8-methyl-7-oxo-7,8-dihydropyrido[2,3-d]pyrimidine-6-carboxamido)acetic acid] showed an IC50 of 2.3 nM.
Under `COc1cccc(-c2ncc3c(O)c(C(=O)NCC(=O)O)c(=O)n(C)c3n2)c1` [Example 34, 2-(5-hydroxy-2-(3-methoxyphenyl)-8-methyl-7-oxo-7,8-dihydropyrido[2,3-d]pyrimidine-6-carboxamido)acetic acid] stands 10 nM.
Under `Cn1c(=O)c(C(=O)NCC(=O)O)c(O)c2cnc(-c3ccsc3)nc21` [Example 54, 2-(5-hydroxy-8-methyl-7-oxo-2-(thiophen-3-yl)-7,8-dihydropyrido[2,3-d]pyrimidine-6-carboxamido)acetic acid] stands 4 nM; under `Cn1c(=O)c(C(=O)NCC(=O)O)c(O)c2cnc(C(F)(F)F)nc21` [Example 14, 2-(5-hydroxy-8-methyl-7-oxo-2-(trifluoromethyl)-7,8-dihydropyrido[2,3-d]pyrimidine-6-carboxamido)acetic acid], 6.9 nM.
Compound `Cn1c(=O)c(C(=O)NCC(=O)O)c(O)c2cnc(C3CC3)nc21` [Example 24, 2-(2-cyclopropyl-5-hydroxy-8-methyl-7-oxo-7,8-dihydropyrido[2,3-d]pyrimidine-6-carboxamido)acetic acid] registered an IC50 of 3.9 nM. This IC50 is about 1.8-fold lower than that of the compound before.
Under `Cn1c(=O)c(C(=O)NCC(=O)O)c(O)c2cnc(-c3cccc(Cl)c3)nc21` [Example 43, 2-(2-(3-chlorophenyl)-5-hydroxy-8-methyl-7-oxo-7,8-dihydropyrido[2,3-d]pyrimidine-6-carboxamido)acetic acid] stands 7.9 nM.
Consider `CC(C)Oc1ccc(-c2cc3c(O)c(C(=O)NCC(=O)O)c(=O)n(C)c3nn2)cc1` [Example 8, 2-(5-hydroxy-3-(4-isopropoxyphenyl)-8-methyl-7-oxo-7,8-dihydropyrido[2,3-c]pyridazine-6-carboxamido)acetic acid], for which the IC50 was 21 nM. This IC50 is about 2.7-fold higher than that of the compound before.
Under `Cn1c(=O)c(C(=O)NCC(=O)O)c(O)c2cnc(-c3cccnc3)nc21` [Example 55, 2-(5-hydroxy-8-methyl-7-oxo-2-(pyridin-3-yl)-7,8-dihydropyrido[2,3-d]pyrimidine-6-carboxamido)acetic acid] stands 4.45 nM.
Under `CCC1CCCCN1c1ncc2c(O)c(C(=O)NCC(=O)O)c(=O)n(C)c2n1` (stereo not drawn) [Example 19, 2-(2-(2-ethylpiperidin-1-yl)-5-hydroxy-8-methyl-7-oxo-7,8-dihydropyrido[2,3-d]pyrimidine-6-carboxamido)acetic acid] stands 71 nM; under `Cn1c(=O)c(C(=O)NCC(=O)O)c(O)c2cnc(-c3cc4ccccc4s3)nc21` [Example 36, 2-(2-(benzo[b]thiophen-2-yl)-5-hydroxy-8-methyl-7-oxo-7,8-dihydropyrido[2,3-d]pyrimidine-6-carboxamido)acetic acid], 7.4 nM.
As to `Cn1c(=O)c(C(=O)NCC(=O)O)c(O)c2cc(-c3cccs3)nnc21` [Example 3, 2-(5-hydroxy-8-methyl-7-oxo-3-(thiophen-2-yl)-7,8-dihydropyrido[2,3-c]pyridazine-6-carboxamido)acetic acid], 22 nM corresponded to half-maximal inhibition (IC50).
Under `COc1ccccc1-c1ncc2c(O)c(C(=O)NCC(=O)O)c(=O)n(C)c2n1` [Example 31, 2-(5-hydroxy-2-(2-methoxyphenyl)-8-methyl-7-oxo-7,8-dihydropyrido[2,3-d]pyrimidine-6-carboxamido)acetic acid] stands 2.4 nM; under `Cc1ccc(-c2ncc3c(O)c(C(=O)NCC(=O)O)c(=O)n(C)c3n2)cc1` [Example 47, 2-(5-hydroxy-8-methyl-7-oxo-2-p-tolyl-7,8-dihydropyrido[2,3-d]pyrimidine-6-carboxamido)acetic acid], 6.7 nM.

(Values after patent publication US8097620B2, “Diazaquinolones that inhibit prolyl hydroxylase activity” (Amgen Inc., priority 2007, dated 2012).)
